The results in this text go back to ChEMBL document CHEMBL3879907, “8-azabicyclo[3.2.1]octane compounds as mu opioid receptor antagonists” (2014).

In assay [1] the test system is Mus musculus. Nature of the assay: Reversal of morphine-induced delayed gastrointestinal transit in sc dosed mouse compound administered prior to morphine challenge followed by non-nutritive, non-absorbable charcol meal administration by oral gavage at 5 mins post morphine challenge for 60 mins. Type of assay: functional. As to conditions: read-out: ID50 (the source's name).

In assay [2] the test system is Mus musculus. In words: Reversal of morphine-induced delayed gastrointestinal transit in po dosed mouse compound administered prior to morphine challenge followed by non-nutritive, non-absorbable charcol meal administration by oral gavage at 5 mins post morphine challenge for 60 mins. Type of assay: functional. As to conditions: read-out: ID50 (the source's name).

Assay [3] deals with Delta-type opioid receptor (Homo sapiens, UniProt P41143). Nature of the assay: Displacement of [3H]-diprenorphine from human delta opioid receptor expressed in cell membranes.
Chain of Delta-type opioid receptor (P41143 whole entry): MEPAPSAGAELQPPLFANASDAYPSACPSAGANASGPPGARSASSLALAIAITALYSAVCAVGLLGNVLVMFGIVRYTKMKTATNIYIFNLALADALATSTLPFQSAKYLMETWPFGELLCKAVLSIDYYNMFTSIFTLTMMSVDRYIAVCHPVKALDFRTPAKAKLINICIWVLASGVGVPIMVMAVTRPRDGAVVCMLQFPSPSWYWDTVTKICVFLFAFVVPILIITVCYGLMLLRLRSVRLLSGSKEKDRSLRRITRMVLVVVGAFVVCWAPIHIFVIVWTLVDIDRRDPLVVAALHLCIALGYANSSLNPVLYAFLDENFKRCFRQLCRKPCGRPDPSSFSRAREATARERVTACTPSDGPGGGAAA
For assay [4], the target named is Kappa-type opioid receptor (Cavia porcellus, UniProt P41144). In words: Displacement of [3H]-diprenorphine from guinea pig kappa opioid receptor expressed in CHOK1 cell membranes. As to conditions: cho-k1.
Chain of Kappa-type opioid receptor (P41144 whole entry): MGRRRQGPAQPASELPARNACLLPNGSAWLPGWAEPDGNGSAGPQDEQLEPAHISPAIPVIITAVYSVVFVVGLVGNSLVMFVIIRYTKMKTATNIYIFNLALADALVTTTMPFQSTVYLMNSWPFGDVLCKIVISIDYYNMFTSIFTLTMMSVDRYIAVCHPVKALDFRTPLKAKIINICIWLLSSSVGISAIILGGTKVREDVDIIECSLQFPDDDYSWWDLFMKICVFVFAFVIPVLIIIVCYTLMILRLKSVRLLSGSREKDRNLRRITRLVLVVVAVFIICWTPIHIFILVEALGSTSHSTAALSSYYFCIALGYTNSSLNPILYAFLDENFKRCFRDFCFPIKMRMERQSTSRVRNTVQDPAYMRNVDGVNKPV
Assay [5] concerns the target Mu-type opioid receptor (Homo sapiens) (UniProt P35372). In words: Intrinsic activity at human mu opioid receptor expressed in CHOK1 cell membranes at 0.00001 to 20 uM after 30 mins by GTP-Eu nucleotide exchange assay relative to DAMGO. The assay is classed as functional. As to conditions: CHO-K1.

Chain of Mu-type opioid receptor (Homo sapiens) (P35372 whole entry): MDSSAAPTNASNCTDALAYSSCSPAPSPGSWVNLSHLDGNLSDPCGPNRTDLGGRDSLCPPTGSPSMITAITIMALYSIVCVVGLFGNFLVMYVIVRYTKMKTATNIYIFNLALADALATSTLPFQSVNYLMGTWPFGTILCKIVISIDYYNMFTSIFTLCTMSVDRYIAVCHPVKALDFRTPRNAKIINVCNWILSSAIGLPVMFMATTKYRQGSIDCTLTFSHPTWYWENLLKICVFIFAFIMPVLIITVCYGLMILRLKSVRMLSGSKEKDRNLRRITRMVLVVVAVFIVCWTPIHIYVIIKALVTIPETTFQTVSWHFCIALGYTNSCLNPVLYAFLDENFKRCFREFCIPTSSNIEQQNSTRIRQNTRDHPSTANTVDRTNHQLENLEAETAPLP

Turning to `NC(=O)c1cccc([C@H]2C[C@H]3CC[C@@H](C2)N3CCN(CC2CCCCC2)C(=O)[C@@H](O)CO)c1.O=S(=O)(O)O` [AXELOPRAN SULFATE], the ED50 with Mus musculus [1] and with Mus musculus [2] was 0.1 to 3 mg/kg each time.
As for `NC(=O)c1cccc([C@H]2C[C@H]3CC[C@@H](C2)N3CCN(CC2CCCCC2)C(=O)[C@@H](O)CO)c1` [AXELOPRAN], the ED50 with Mus musculus [1] and in the assay with Mus musculus [2] was 0.1 to 3 mg/kg throughout.
For `NC(=O)c1cccc([C@H]2C[C@H]3CC[C@@H](C2)N3CCN(CC2CCCCC2)C(=O)[C@@H](O)CO)c1.O=C(O)C(=O)O`, the ED50 in the assay with Mus musculus [1] and with Mus musculus [2] was 0.1 to 3 mg/kg each time. For the same compound, the pKi in assay [3] and in assay [4] was 7 to 10.5 in each case.
As to `NC(=O)c1cccc([C@H]2C[C@H]3CC[C@@H](C2)N3CCN(CCc2ccccc2)C(=O)CO)c1`, the ED50 in the assay with Mus musculus [1] and with Mus musculus [2] was 0.1 to 3 mg/kg throughout. Besides, in assay [3], the pKi fell in the range of 7 to 10.5.
Consider `NC(=O)c1cccc([C@H]2C[C@H]3CC[C@@H](C2)N3CCN(CC2CCC(F)(F)CC2)C(=O)CO)c1`, for which the ED50 in the assay on Mus musculus [1] and with Mus musculus [2] was 0.1 to 3 mg/kg each time. The pKi in assay [3] and in assay [4] was 7 to 10.5 each time. This compound yielded an Intrinsic activity in assay [5] below 40%.
`CC(CO)(CO)C(=O)N(CCN1[C@@H]2CC[C@H]1C[C@@H](c1cccc(C(N)=O)c1)C2)CC1CCCC1.O=C(O)C(F)(F)F`: the pKi in assay [3] and in assay [4] was 7 to 10.5 throughout. In addition, in assay [5], the Intrinsic activity was below 40%.
As for `NC(=O)c1cccc([C@H]2C[C@H]3CC[C@@H](C2)N3CCN(Cc2ccccc2)C(=O)CO)c1`, the ED50 in the assay on Mus musculus [1] and in the assay with Mus musculus [2] was 0.1 to 3 mg/kg throughout. For the same compound, the pKi in assay [3] and in assay [4] was 7 to 10.5 throughout.
Take `CS(=O)(=O)N(CCN1[C@@H]2CC[C@H]1C[C@@H](c1cccc(C(N)=O)c1)C2)Cc1ccccc1.O=C(O)C(F)(F)F`: the pKi in assay [3] and in assay [4] was 7 to 10.5 throughout. Further, the Intrinsic activity in assay [5] is below 40%.
As for `CS(=O)(=O)CC(=O)N(CCCN1[C@@H]2CC[C@H]1C[C@@H](c1cccc(C(N)=O)c1)C2)Cc1ccccc1.O=C(O)C(F)(F)F`, the negative logarithm of the Ki (pKi) in assay [3] and in assay [4] was 7 to 10.5 each time. The compound further gave an Intrinsic activity in assay [5] below 40%.
As to `C[C@H](O)C(=O)N(CCN1[C@@H]2CC[C@H]1C[C@@H](c1cccc(C(N)=O)c1)C2)Cc1c(F)cccc1F.O=C(O)C(F)(F)F`, the pKi in assay [3] and in assay [4] was 7 to 10.5 in each case. Further, the Intrinsic activity in assay [5] was below 40%.
Regarding `O=C(CO)N(CCN1[C@@H]2CC[C@H]1C[C@@H](c1cccc(O)c1)C2)Cc1c(F)cccc1F`, the pKi in assay [3] and in assay [4] was 7 to 10.5 each time. In addition, the Intrinsic activity in assay [5] is below 40%.
Consider `CC(=O)N(CCN1[C@@H]2CC[C@H]1C[C@@H](c1cccc(O)c1)C2)CC1CCCCC1`, for which the pKi in assay [3] and in assay [4] was 7 to 10.5 throughout. In assay [5], this compound registered an Intrinsic activity below 40%.
On to `CS(=O)(=O)N(CCN1[C@@H]2CC[C@H]1C[C@@H](c1cccc(C(N)=O)c1)C2)CC1CCCC1.O=C(O)C(F)(F)F`, for which the negative logarithm of the Ki (pKi) in assay [3] and in assay [4] was 7 to 10.5 in each case. In assay [5], the Intrinsic activity was below 40%.
On to `NC(=O)c1cccc([C@H]2C[C@H]3CC[C@@H](C2)N3CCN(CC(F)(F)c2ccccc2)C(=O)[C@@H](O)CO)c1.O=C(O)C(F)(F)F`, for which the pKi in assay [3] and in assay [4] was 7 to 10.5 each time. The Intrinsic activity in assay [5] is below 40%.
Turning to `CCC(CC)C(=O)N(Cc1ccccc1)[C@H](C)CN1[C@@H]2CC[C@H]1C[C@@H](c1cccc(O)c1)C2`, the pKi in assay [3] and in assay [4] was 7 to 10.5 in each case. The Intrinsic activity in assay [5] was below 40%.
For `CC(=O)N(CCCN1[C@@H]2CC[C@H]1C[C@@H](c1cccc(C(N)=O)c1)C2)CC1CCCCC1`, the pKi in assay [3] and in assay [4] was 7 to 10.5 each time. The same compound had an Intrinsic activity in assay [5] below 40%.
For `O=C(Cc1ccccc1)N(CCN1[C@@H]2CC[C@H]1C[C@@H](c1cccc(O)c1)C2)CC1CCCCC1`, the pKi in assay [3] and in assay [4] was 7 to 10.5 throughout. Moreover, the Intrinsic activity in assay [5] was below 40%.
In the case of `CS(=O)(=O)CC(=O)N(CCN1[C@@H]2CC[C@H]1C[C@@H](c1cccc(C(N)=O)c1)C2)Cc1ccc(F)cc1.O=C(O)C(F)(F)F`, the pKi in assay [3] and in assay [4] was 7 to 10.5 each time. In assay [5], this compound displayed an Intrinsic activity below 40%.
For `CN(C)S(=O)(=O)N(CCN1[C@@H]2CC[C@H]1C[C@@H](c1cccc(C(N)=O)c1)C2)CC1CCCCC1.O=C(O)C(F)(F)F`, the negative-log Ki (pKi) in assay [3] and in assay [4] was 7 to 10.5 throughout. Besides, the Intrinsic activity in assay [5] is below 40%.
`O=C(O)CCC(=O)N(CCN1[C@@H]2CC[C@H]1C[C@@H](c1cccc(O)c1)C2)Cc1ccccc1`: the pKi in assay [3] and in assay [4] was 7 to 10.5 in each case. Also, the Intrinsic activity in assay [5] was below 40%.
Take `C[C@H](O)C(=O)N(CCN1[C@@H]2CC[C@H]1C[C@@H](c1cccc(C(N)=O)c1)C2)CC1CCC(F)(F)CC1.O=C(O)C(F)(F)F`: the pKi in assay [3] and in assay [4] was 7 to 10.5 throughout. In assay [5], this compound yielded an Intrinsic activity below 40%.
With `CN(C)S(=O)(=O)N(CCN1[C@@H]2CC[C@H]1C[C@@H](c1cccc(C(N)=O)c1)C2)Cc1c(F)cccc1F.O=C(O)C(F)(F)F`, the pKi in assay [3] and in assay [4] was 7 to 10.5 in each case. The compound also showed an Intrinsic activity in assay [5] below 40%.
Turning to `CS(=O)(=O)CC(=O)N(CCN1[C@@H]2CC[C@H]1C[C@@H](c1cccc(C(N)=O)c1)C2)Cc1c(F)cccc1F`, the negative logarithm of the Ki (pKi) in assay [3] and in assay [4] was 7 to 10.5 in each case. The same compound displayed an Intrinsic activity in assay [5] below 40%.
Turning to `CS(=O)(=O)Nc1cccc([C@H]2C[C@H]3CC[C@@H](C2)N3CCN(CC2CCCCC2)C(=O)CO)c1`, the pKi in assay [3] and in assay [4] was 7 to 10.5 throughout. The compound also returned an Intrinsic activity in assay [5] below 40%.
In the case of `NC(=O)c1cccc([C@H]2C[C@H]3CC[C@@H](C2)N3CCN(CC2CCCCC2)C(=O)CO)c1`, the ED50 in the assay on Mus musculus [1] and with Mus musculus [2] was 0.1 to 3 mg/kg throughout. The compound further yielded an Intrinsic activity in assay [5] below 40%.
Regarding `CCN(CC)CC[C@H](O)C(=O)N(CCN1[C@@H]2CC[C@H]1C[C@@H](c1cccc(C(N)=O)c1)C2)CC1CCCCC1`, the pKi in assay [3] and in assay [4] was 7 to 10.5 in each case. In assay [5], this compound displayed an Intrinsic activity below 40%.
